Structures can show the parent of a compound that is named as a salt.

The target of one test is T1, IRAK4 (Homo sapiens, UniProt Q9NWZ3).
T1 sequence (Q9NWZ3 1-460): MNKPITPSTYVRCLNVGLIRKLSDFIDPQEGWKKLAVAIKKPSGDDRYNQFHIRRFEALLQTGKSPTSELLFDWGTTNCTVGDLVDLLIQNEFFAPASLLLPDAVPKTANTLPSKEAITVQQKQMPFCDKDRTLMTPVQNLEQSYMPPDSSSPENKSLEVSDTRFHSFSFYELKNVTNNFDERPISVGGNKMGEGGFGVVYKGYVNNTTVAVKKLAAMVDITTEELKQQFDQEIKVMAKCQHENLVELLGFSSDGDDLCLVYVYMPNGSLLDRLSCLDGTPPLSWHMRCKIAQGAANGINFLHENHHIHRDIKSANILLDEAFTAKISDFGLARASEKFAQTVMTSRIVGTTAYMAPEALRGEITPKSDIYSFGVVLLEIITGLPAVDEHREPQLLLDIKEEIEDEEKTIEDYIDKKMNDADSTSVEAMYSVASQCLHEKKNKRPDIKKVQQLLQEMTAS
Kind of test: biochemical.
Details: not given
The molecule `CC1CC(Oc2cc3nc(C45COC(C)(C4)C5)cn3cc2C(=O)Nc2ccn(C)n2)C1` (stereo not shown) [Example 549] displayed an IC50 of 0.0034 µM. That is a single-digit nanomolar value.

In turn, `COc1cccc(NC(=O)c2cn3cc(C4C5COCC54)nc3cc2OC(C)C)n1` (stereo not shown) [Example 254, 2-(3-Oxabicyclo[3.1.0]hexan-6-yl)-7-isopropoxy-N-(6-methoxypyridin-2-yl)imidazo[1,2-a]pyridine-6-carboxamide] yielded an IC50 of 0.001 µM.

With `CC12CC(c3cn4cc(C(=O)Nc5cccn(C(F)F)c5=O)c(OC5CC(F)(F)C5)cc4n3)(CO1)C2` [Example 455, 7-(3,3-Difluorocyclobutoxy)-N-(1-(difluoromethyl)-2-oxo-1,2-dihydropyridin-3-yl)-2-(1-methyl-2-oxabicyclo[2.1.1]hexan-4-yl)imidazo[1,2-a]pyridine-6-carboxamide], inhibition was half-maximal at 0.0012 µM (IC50).

In turn, `CC12CC(c3cn4cc(C(=O)Nc5cccc(C(F)F)n5)nc(OCC(F)F)c4n3)(CO1)C2` [Example 344, 8-(2,2-Difluoroethoxy)-N-(6-(difluoromethyl)pyridin-2-yl)-2-(1-methyl-2-oxabicyclo[2.1.1]hexan-4-yl)imidazo[1,2-a]pyrazine-6-carboxamide] had an IC50 of 0.0034 µM.

`COc1ncccc1NC(=O)c1cn2cc(C34COC(CF)(C3)C4)nc2c(OC(C)C)n1` [Example 339, 2-(1-(Fluoromethyl)-2-oxabicyclo[2.1.1]hexan-4-yl)-8-isopropoxy-N-(2-methoxypyridin-3-yl)imidazo[1,2-a]pyrazine-6-carboxamide] registered an IC50 of 0.0008 µM.

Molecule `CC(C)Oc1cc2nc(C34COC(C3)C4)cn2cc1C(=O)Nc1cccn(C(F)F)c1=O` [Example 547, 2-(2-Oxabicyclo[2.1.1]hexan-4-yl)-N-(1-(difluoromethyl)-2-oxo-1,2-dihydropyridin-3-yl)-7-isopropoxyimidazo[1,2-a]pyridine-6-carboxamide] had an IC50 of 0.0008 µM.

As to `CC(C)Oc1nc2nc([C@@]34CC[C@@](C)(C3)OC4)cn2cc1C(=O)Nc1cnn2cc(F)cnc12` (single isomer, unassigned) [Example 630], the IC50 was determined as 0.0003 µM.

The molecule `CCOc1nc(C(=O)Nc2cc(F)cn(C)c2=O)cn2cc([C@H]3CCCOC3)nc12` (single isomer, unassigned) [Example 597] yielded an IC50 of 0.014 µM.

Consider `CC(C)Oc1nc2nc(C34COC(C)(C3)C4)cn2cc1C(=O)Nc1ccccn1` [Example 354, 7-Isopropoxy-2-(1-methyl-2-oxabicyclo[2.1.1]hexan-4-yl)-N-(pyridin-2-yl)imidazo[1,2-a]pyrimidine-6-carboxamide], for which it took 0.0053 µM to reach half-maximal inhibition (IC50).

The molecule `CC12CC(c3cn4cc(C(=O)Nc5cnn6cccnc56)c(OC5CCC5)cc4n3)(CO1)C2` [Example 406, 7-Cyclobutoxy-2-(1-methyl-2-oxabicyclo[2.1.1]hexan-4-yl)-N-(pyrazolo[1,5-a]pyrimidin-3-yl)imidazo[1,2-a]pyridine-6-carboxamide] displayed an IC50 of 0.0003 µM.

`CC(C)Oc1nc2nc([C@@]34CC[C@@](C)(C3)OC4)cn2cc1C(=O)Nc1cnn2cccnc12` (single isomer, unassigned) [Example 612] showed an IC50 of 0.0004 µM.

`Cc1cnc2c(NC(=O)c3cn4cc(C56CCC(C)(C5)OC6)nc4cc3OC3CC3)cnn2c1` (stereo not shown) [Example 555] gave an IC50 of 0.0016 µM.

`COc1ncccc1NC(=O)c1cn2cc(C34COC(C3)C4)nc2cc1OC(C)C` [Example 545, 2-(2-Oxabicyclo[2.1.1]hexan-4-yl)-7-isopropoxy-N-(2-methoxypyridin-3-yl)imidazo[1,2-a]pyridine-6-carboxamide] came in with an IC50 of 0.0013 µM.

The molecule `O=C(Nc1cccc(C(F)F)n1)c1cn2cc(C3CC3)nc2cc1OC1CCOC1` (stereo not shown) [Example 468, 2-Cyclopropyl-N-(6-(difluoromethyl)pyridin-2-yl)-7-((tetrahydrofuran-3-yl)oxy)imidazo[1,2-a]pyridine-6-carboxamide] showed an IC50 of 0.007 µM.

The molecule `CC(C)(C)c1cn2cc(C(=O)Nc3cccc(C(F)F)n3)c(OC3COC4(CC4)C3)cc2n1` (stereo not shown) [Example 268, 7-((4-Oxaspiro[2.4]heptan-6-yl)oxy)-2-(tert-butyl)-N-(6-(difluoromethyl)pyridin-2-yl)imidazo[1,2-a]pyridine-6-carboxamide] showed a concentration for half-maximal inhibition (IC50) of 0.0083 µM. This IC50 and that of the molecule before are within 1.5-fold of each other.

Molecule `CC(C)Oc1cc2nc([C@]34CC[C@](C)(C3)OC4)cn2cc1C(=O)Nc1ccn(C)n1` (single isomer, unassigned) [Example 607] came in with an IC50 of 0.0031 µM.

The molecule `COc1cc2nc(C3CCOCC3)cn2cc1C(=O)Nc1ccn(C2CCCC2)n1` [Example 191] registered an IC50 of 0.27 µM.

`CC(C)Oc1cc2nc(C34COC(C)(C3)C4)cn2cc1C(=O)Nc1cnn2ccc(Cl)nc12` [Example 264, N-(5-chloropyrazolo[1,5-a]pyrimidin-3-yl)-7-isopropoxy-2-(1-methyl-2-oxabicyclo[2.1.1]hexan-4-yl)imidazo[1,2-a]pyridine-6-carboxamide] had an IC50 of 0.0002 µM.

`CC(C)Oc1nc2nc(C34COC(C)(C3)C4)cn2cc1C(=O)Nc1cc(F)n(C)n1` [Example 360, N-(5-fluoro-1-methyl-1H-pyrazol-3-yl)-7-isopropoxy-2-(1-methyl-2-oxabicyclo[2.1.1]hexan-4-yl)imidazo[1,2-a]pyrimidine-6-carboxamide] returned an IC50 of 0.0111 µM. Compared with the last molecule, the IC50 is about 56-fold higher.

As to `CC(C)Oc1cc2nc(C34CCC(C3)OC4)cn2cc1C(=O)Nc1ccn(C)n1` (stereo not shown) [Example 415, 2-(2-Oxabicyclo[2.2.1]heptan-4-yl)-7-isopropoxy-N-(1-methyl-1H-pyrazol-3-yl)imidazo[1,2-a]pyridine-6-carboxamide], the IC50 amounted to 0.0085 µM. This IC50 and that of the molecule before are within 1.5-fold of each other.

For `CC(C)Oc1c(C(=O)Nc2cccc(C(F)F)n2)cn2cc(C3CCOCC3)nc2c1F` [Example 303, N-(6-(difluoromethyl)pyridin-2-yl)-8-fluoro-7-isopropoxy-2-(tetrahydro-2H-pyran-4-yl)imidazo[1,2-a]pyridine-6-carboxamide], the IC50 worked out at 0.0014 µM.

The molecule `Cn1cc(-c2cccc(NC(=O)c3cn4cc(C56COC(C)(C5)C6)nc4cc3OC3CCC3)n2)cn1` [Example 520, 7-Cyclobutoxy-N-(6-(1-methyl-1H-pyrazol-4-yl)pyridin-2-yl)-2-(1-methyl-2-oxabicyclo[2.1.1]hexan-4-yl)imidazo[1,2-a]pyridine-6-carboxamide] returned an IC50 of 0.0001 µM.

The molecule `COc1cc2nc(C3CCOCC3)cn2cc1C(=O)Nc1ccn(CC2CC2)n1` [Example 184] returned a 50% inhibitory concentration (IC50) of 0.208 µM. Against the preceding molecule, the IC50 is about 2100-fold higher.

`CC12CC(c3cn4cc(C(=O)Nc5cnc6cccnn56)c(OC5CCCC5)nc4n3)(CO1)C2` [Example 650, 7-(cyclopentyloxy)-N-(imidazo[1,2-b]pyridazin-3-yl)-2-(1-methyl-2-oxabicyclo[2.1.1]hexan-4-yl)imidazo[1,2-a]pyrimidine-6-carboxamide] returned an IC50 of 0.0001 µM.

As to `CCOc1nc(C(=O)Nc2cccnc2OC)cn2cc(C3CCCOC3)nc12` (stereo not shown) [Example 224], the IC50 came to 0.0086 µM.

Turning to `COc1cc2nc(C3CCOCC3)cn2cc1C(=O)Nc1cccnc1O` [Example 189], the IC50 was determined as 0.0165 µM.

For the molecule `CC(C)COc1cc2nc(C34COC(C)(C3)C4)cn2cc1C(=O)Nc1cccn(C(F)F)c1=O` [Example 453, N-(1-(difluoromethyl)-2-oxo-1,2-dihydropyridin-3-yl)-7-isobutoxy-2-(1-methyl-2-oxabicyclo[2.1.1]hexan-4-yl)imidazo[1,2-a]pyridine-6-carboxamide], the IC50 worked out at 0.0007 µM.

As to `COc1cc2nc(C3CCOCC3)cn2cc1C(=O)Nc1cccc(C)c1Cl` [Example 115], the 50% inhibitory concentration (IC50) came out at 0.0061 µM.

Still in this test, the particulars now being: IRAK4 Biochemical Assay (1 mM ATP, 2 h) IC50 (μM), 1 mM ATP, 2 h, 100 pM IRAK4.
As to `CCOc1cc2nc(C3(OC)CC3)cn2cc1C(=O)Nc1cccc(C(F)F)n1` [Example 390, N-(6-(difluoromethyl)pyridin-2-yl)-7-ethoxy-2-(1-methoxy-cyclopropyl)imidazo[1,2-a]pyridine-6-carboxamide hydrochloride], the IC50 is 0.009 µM.

`CC1(C)CC(Oc2cc3nc(C45COC(C)(C4)C5)cn3cc2C(=O)Nc2cccn(C(F)F)c2=O)CO1` (stereo not shown) [Example 447, N-(1-(difluoromethyl)-2-oxo-1,2-dihydropyridin-3-yl)-7-((5,5-dimethyltetrahydrofuran-3-yl)oxy)-2-(1-methyl-2-oxabicyclo[2.1.1]hexan-4-yl)imidazo[1,2-a]pyridine-6-carboxamide] gave an IC50 of 0.0014 µM.

Molecule `COc1cccc(NC(=O)c2cn3cc(C45CC(C)(CO4)C5)nc3cc2OC)n1` [Example 26] had an IC50 of 0.124 µM.

Molecule `COc1cccc(NC(=O)c2cn3cc(C4C5CCOCC54)nc3cc2OC)n1` (stereo not shown) [Example 25] showed an IC50 of 0.0031 µM. Compared with the last molecule, the IC50 is about 40-fold lower.

`CC(C)Oc1nc2nc(C34COC(C)(C3)C4)cn2cc1C(=O)Nc1cccc(C(C)(F)F)n1` [Example 356, N-(6-(1,1-difluoroethyl)pyridin-2-yl)-7-isopropoxy-2-(1-methyl-2-oxabicyclo[2.1.1]hexan-4-yl)imidazo[1,2-a]pyrimidine-6-carboxamide trifluoroacetate] registered a half-inhibitory concentration (IC50) of 0.0011 µM. Against the preceding molecule, the IC50 is about 2.8-fold lower.

`CC(C)Oc1cc2nc(C34COC(C)(C3)C4)cn2cc1C(=O)Nc1cncn(C)c1=O` [Example 261, 7-Isopropoxy-N-(1-methyl-6-oxo-1,6-dihydropyrimidin-5-yl)-2-(1-methyl-2-oxabicyclo[2.1.1]hexan-4-yl)imidazo[1,2-a]pyridine-6-carboxamide 2,2,2-trifluoroacetate] yielded an IC50 of 0.0047 µM.

For the origin of these results see patent publication US20230087118A1, “IMIDAZO[1,2-a][sequence] DERIVATIVES AND THEIR USE IN THE TREATMENT OF DISEASE” (priority 2019, published 2023).
